Test results reported in patent US11911353B2, “Fatty acid synthase inhibitor and application thereof” (Jiangnan University, priority 2019, dated 2024).

Assays:
[1] = system: prostate cancer cells PC-3; experiment: Growth cycle of PC-3 cells, PI staining flow cytometry (FIG. 3); type: cell-based; conditions: 10 μM treatment group, 24 hours; control group 10.34%
Description: […]

[2] = system: prostate cancer cells PC-3; experiment: MTT tumor proliferation IC50, PC-3; type: cell-based; conditions: 72 hours of incubation
Description: (§1) IC50 (half maximal inhibitory concentration) refers to the half inhibitory concentration of a measured antagonist. It can indicate that a certain concentration of a certain drug or substance (inhibitor) induces tumor cell apoptosis by 50%, and this concentration is referred to as 50% inhibitory concentration, namely, the corresponding concentration when the ratio of apoptotic cells to the total number of cells is equal to 50%. The IC50 value can be used to measure the ability of a drug to induce apoptosis, that is, the higher the inducing ability, the lower the value, which also can indicate the tolerance degree of a certain cell to a drug on the contrary. • (1) Cells in the logarithmic phase are collected, the concentration of a cell suspension is adjusted, it is appropriate to place 100 μl cells in each well of a 96-well plate, the cells are inoculated into the plate to adjust the density of to-be-detected cells to be 1000-10000 cells/well, and edge wells are filled with sterile PBS. • (2) The cells are incubated under 5% CO2 at 37° C., an original culture medium is discarded after complete cell adherence, 200 μl of 1 wt % FBS culture medium containing 0.01 μM, 0.1 μM, 1 μM, 5 μM and 10 μM compound I-1 or cerulenin is added into each well, and there are 6 wells run in duplicate. An equal volume of DMSO is added as a negative control. • (3) After 72 hours of incubation, the cells are photographed for state recording, an original culture medium is discarded, and 100 μl of serum-free culture medium containing 0.5 mg/ml MTT (3-(4,5-dimethylthiazole-2)-2,5-diphenyltetrazolium bromide, trade name thiazolyl blue) is added into each well. • (4) After 2-4 hours of incubation, an original culture medium is discarded, and 150 μl of dimethyl sulfoxide (DMSO) is added into each well and shaken at 300 rpm for 10 minutes to fully dissolve purple crystals. • (5) The absorbance of each well at OD570 nm is measured by an enzyme-linked immunodetection instrument, the absorbance at OD630 nm is used as a reference, dual-wavelength measurement is carried out, and survival rate results are calculated according to the following formula: Cell survival rate=(OD570−OD630)/(OD570 negative control−OD630 negative control);
(§2) wherein, OD570: OD570 value of each treatment group; OD630: OD630 value of each treatment group; OD570 control: OD570 value of the negative control group; OD630 control: OD630 value of the negative control group. • (6) The survival rate results are processed with graphpad 6.0 software according to the concentration gradient, the analysis mode is log (inhibitor) vs. Nonlinear regression (curve fit), and the calculated IC50 value is expressed as x+/−SD.
(§3) The FASN enzyme activity measurement method shown in Experimental Example 18 is used to detect the effects of different substances on FASN enzyme activity. The method shown in Experimental Example 19 is used to detect the effects of different substances on the proliferation of tumor cells, cerulenin is used as a control, and the inhibition rates (%) of different substances on FASN enzyme activity and inhibition rates (IC50 nM) on tumor proliferation are calculated.

[3] = system: colon cancer cells HCT116; experiment: MTT tumor proliferation IC50, HCT116; type: cell-based; conditions: Homo sapiens, HCT-116, 72 hours of incubation
Description: as §1, §2, §3

transplanted tumors PC3 = experiment: Growth of transplanted tumors PC3 in nude mice (FIG. 8); type: in vivo; conditions: 5 mg/kg intraperitoneally every 2 days, four weeks
Description: […]

## O=C(CCCC(=O)Nc1ccc(Br)cc1)N/N=C/c1cc(Br)ccc1O [Compound I-1]
[1]
  proportion of PC3 cells in S phase: 19.10%
[2]
  IC50: 9 nM
[3]
  IC50: 13 nM
Transplanted tumors PC3; FIG. 8B
  HE staining of transplanted tumor tissue: dark dotted area is significantly reduced
Transplanted tumors PC3; PC3 transplanted tumors
  tumor mass of mice: significantly lower than that of the control group
